Data as given in patent publication US8933224B2, “Triazine derivatives” (Pfizer Inc., priority 2013, dated 2015).

Each compound was assayed against rat PDE10 enzyme (Rattus norvegicus (Rat), UniProt Q9QYJ6) (assay: PDE10 scintillation proximity assay (SPA), inhibition of rat PDE10 enzyme activity). Conditions: geometric mean of 2-4 determinations unless otherwise indicated (b: ≧5 determinations; c: single determination).
Assay type: biochemical
Protocol: PDE10 activity was measured using a scintillation assay (SPA-based method) similar to that previously described by Seeger, T. F. et al., Brain Research 985 (2003) 113-126. The compounds' relative activity as PDE10 inhibitors was investigated by assaying a fixed amount of enzyme in the presence of the test compound and low substrate concentration (cAMP) such that an IC50 could be determined. […] The assay is performed in a 384-well format with 50 μL assay buffer (50 mM TRIS pH 7.5; 1.3 mM MgCl2; 0.01% Brij) containing enough PDE10 to convert ˜20% of 20 nM ^3H-cAMP, and a range of inhibitors. Reactions are incubated for 30 minutes at 25° C. The addition of 20 μL of 8 mg/ml yttrium silicate SPA beads (PerkinElmer) stops the reaction. The plates are sealed (TopSeal, PerkinElmer) and the beads are allowed to settle for 8 hrs, after which they are read on the Trilux Microbeta overnight. ^1Rat enzyme preparation:^2Human enzyme preparation:
The recombinant Bacmid was isolated and used to transfect sf9 insect cells to generate a viral stock. To generate cell paste for purification, sf21 cells were infected with the virus stock and cells were harvested 72 hours after infection as described in Seeger, T. F. et al., Brain Research 985 (2003) 113-126. Insect cell paste was lysed and after centrifugation, the supernatant was chromatographed on Ni-NTA agarose (Qiagen) followed by Mono Q (GE Healthcare Life Sciences) as described in Seeger, T. F. et al., Brain Research 985 (2003) 113-126.

rat PDE10 enzyme, sequence (Q9QYJ6 24-794): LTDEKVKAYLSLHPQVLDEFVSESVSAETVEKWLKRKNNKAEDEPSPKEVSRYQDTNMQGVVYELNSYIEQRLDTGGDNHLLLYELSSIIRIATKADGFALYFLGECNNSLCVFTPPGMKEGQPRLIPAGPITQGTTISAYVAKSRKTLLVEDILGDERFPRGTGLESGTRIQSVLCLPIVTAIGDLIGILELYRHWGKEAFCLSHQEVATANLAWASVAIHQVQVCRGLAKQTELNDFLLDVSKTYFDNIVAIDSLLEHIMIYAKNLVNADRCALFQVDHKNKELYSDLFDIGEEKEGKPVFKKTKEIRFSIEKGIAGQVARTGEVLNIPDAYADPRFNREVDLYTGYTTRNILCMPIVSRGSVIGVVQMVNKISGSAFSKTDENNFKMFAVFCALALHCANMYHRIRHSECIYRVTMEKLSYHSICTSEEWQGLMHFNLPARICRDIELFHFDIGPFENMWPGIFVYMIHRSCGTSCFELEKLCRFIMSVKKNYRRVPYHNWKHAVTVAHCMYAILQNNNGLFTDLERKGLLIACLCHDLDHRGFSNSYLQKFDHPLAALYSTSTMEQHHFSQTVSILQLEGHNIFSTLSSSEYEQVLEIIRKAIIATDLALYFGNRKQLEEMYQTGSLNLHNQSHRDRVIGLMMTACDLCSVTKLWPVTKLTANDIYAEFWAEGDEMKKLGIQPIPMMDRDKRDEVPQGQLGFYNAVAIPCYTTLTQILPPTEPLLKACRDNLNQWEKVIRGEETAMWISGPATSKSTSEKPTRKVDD

Structure (SMILES)	IC50
CCc1c2c(nn1C)CCN(c1ncnn3c(C)nc(C4CCOCC4)c13)C2 [Example 105, 4-(3-ethyl-2-methyl-2,4,6,7-tetrahydro-5H-pyrazolo[4,3-c]pyridin-5-yl)-7-methyl-5-(tetrahydro-2H-pyran-4-yl)imidazo[5,1-f][1,2,4]triazine]	1.88 nM
CCc1nn(C)c2c1CN(c1ncnn3c(C)nc(C4CCOCC4)c13)CC2 [Example 106, 4-(3-ethyl-1-methyl-1,4,6,7-tetrahydro-5H-pyrazolo[4,3-c]pyridin-5-yl)-7-methyl-5-(tetrahydro-2H-pyran-4-yl)imidazo[5,1-f][1,2,4]triazine]	1.44 nM
CCc1n[nH]c2c1CN(c1ncnn3c(C)nc(C4CCOCC4)c13)CC2 [Example 107, 4-(3-ethyl-1,4,6,7-tetrahydro-5H-pyrazolo[4,3-c]pyridin-5-yl)-7-methyl-5-(tetrahydro-2H-pyran-4-yl)imidazo[5,1-f][1,2,4]triazine]	0.959 nM
Cc1nc(-c2ccccc2F)c2c(N3CCn4ncc(C(F)(F)F)c4C3)ncnn12 [Example 109, 5-(2-fluorophenyl)-7-methyl-4-[3-(trifluoromethyl)-6,7-dihydropyrazolo[1,5-a]pyrazin-5(4H)-yl]imidazo[5,1-f][1,2,4]triazine]	1.73 nM
Cc1nc(-c2ccccc2F)c2c(N3CCc4ncncc4C3)ncnn12 [Example 110, 6-[5-(2-fluorophenyl)-7-methylimidazo[5,1-f][1,2,4]triazin-4-yl]-5,6,7,8-tetrahydropyrido[4,3-d]pyrimidine]	20 nM
Cc1nc2c(s1)CN(c1ncnn3c(C)nc(-c4ccccc4F)c13)CC2 [Example 114, 5-(2-fluorophenyl)-7-methyl-4-(2-methyl-6,7-dihydro[1,3]thiazolo[5,4-c]pyridin-5(4H)-yl)imidazo[5,1-f][1,2,4]triazine]	1.49 nM
Cc1nc(-c2ccccc2F)c2c(N3Cc4ccccc4CC3C)ncnn12 (stereo not drawn) [Example 116, 2-[5-(2-fluorophenyl)-7-methylimidazo[5,1-f][1,2,4]triazin-4-yl]-3-methyl-1,2,3,4-tetrahydroisoquinoline]	8.01 nM
Cc1nn(C)c2c1CN(c1ncnn3c(C)nc(-c4ccc(F)cc4Cl)c13)CC2 [Example 121, 5-(2-chloro-4-fluorophenyl)-4-(1,3-dimethyl-1,4,6,7-tetrahydro-5H-pyrazolo[4,3-c]pyridin-5-yl)-7-methylimidazo[5,1-f][1,2,4]triazine]	1.35 nM
Cc1nc(-c2ccc(F)cc2Cl)c2c(N3CCc4cnn(C)c4C3)ncnn12 [Example 122, 5-(2-chloro-4-fluorophenyl)-7-methyl-4-(1-methyl-1,4,5,7-tetrahydro-6H-pyrazolo[3,4-c]pyridin-6-yl)imidazo[5,1-f][1,2,4]triazine]	2.65 nM
CCOc1nc(C)nc2c1CN(c1ncnn3c(C)nc(-c4ccccc4F)c13)CC2 [Example 123, 4-ethoxy-6-[5-(2-fluorophenyl)-7-methylimidazo[5,1-f][1,2,4]triazin-4-yl]-2-methyl-5,6,7,8-tetrahydropyrido[4,3-d]pyrimidine]	1.43 nM
Cc1nc2c(c(=O)n1C)CN(c1ncnn3c(C)nc(-c4ccccc4F)c13)CC2 [Example 124, 6-[5-(2-fluorophenyl)-7-methylimidazo[5,1-f][1,2,4]triazin-4-yl]-2,3-dimethyl-5,6,7,8-tetrahydropyrido[4,3-d]pyrimidin-4(3H)-one]	2.71 nM
Cc1nc2c(c(OC(F)F)n1)CN(c1ncnn3c(C)nc(-c4ccccc4F)c13)CC2 [Example 125, 4-(difluoromethoxy)-6-[5-(2-fluorophenyl)-7-methylimidazo[5,1-f][1,2,4]triazin-4-yl]-2-methyl-5,6,7,8-tetrahydropyrido[4,3-d]pyrimidine]	6.4 nM
CCn1c(C)nc2c(c1=O)CN(c1ncnn3c(C)nc(-c4ccccc4F)c13)CC2 [Example 126, 3-ethyl-6-[5-(2-fluorophenyl)-7-methylimidazo[5,1-f][1,2,4]triazin-4-yl]-2-methyl-5,6,7,8-tetrahydropyrido[4,3-d]pyrimidin-4(3H)-one]	1.19 nM
Cc1ccc2c(n1)CCN(c1ncnn3c(C)nc(-c4ccccc4F)c13)C2 [Example 138, 6-[5-(2-fluorophenyl)-7-methylimidazo[5,1-f][1,2,4]triazin-4-yl]-2-methyl-5,6,7,8-tetrahydro-1,6-naphthyridine]	0.49 nM
Cc1nc(-c2ccccc2F)c2c(N3CCc4nc(C5CC5)nc(OC(F)F)c4C3)ncnn12 [Example 140, 2-cyclopropyl-4-(difluoromethoxy)-6-[5-(2-fluorophenyl)-7-methylimidazo[5,1-f][1,2,4]triazin-4-yl]-5,6,7,8-tetrahydropyrido[4,3-d]pyrimidine]	1.5 nM
CCOc1nc(C2CC2)nc2c1CN(c1ncnn3c(C)nc(-c4ccccc4F)c13)CC2 [Example 147, 2-cyclopropyl-4-ethoxy-6-[5-(2-fluorophenyl)-7-methylimidazo[5,1-f][1,2,4]triazin-4-yl]-5,6,7,8-tetrahydropyrido[4,3-d]pyrimidine]	9.98 nM
Cc1nc(-c2ccccc2F)c2c(N3CCc4ncccc4C3)ncnn12 [Example 151, 6-[5-(2-fluorophenyl)-7-methylimidazo[5,1-f][1,2,4]triazin-4-yl]-5,6,7,8-tetrahydro-1,6-naphthyridine]	1.01 nM

Continued by falling IC50, values first:

IC50	Structure (SMILES)
0.902 nM	Cc1nc(C2CCOCC2)c2c(N3CCc4[nH]nc(C(C)C)c4C3)ncnn12 [Example 108, 7-methyl-4-(3-(propan-2-yl)-1,4,6,7-tetrahydro-5H-pyrazolo[4,3-c]pyridin-5-yl]-5-(tetrahydro-2H-pyran-4-yl)imidazo[5,1-f][1,2,4]triazine]
0.834 nM	Cc1nn(C)c2c1CN(c1ncnn3c(C)nc(-c4ccccc4F)c13)CC2 [Example 115, 4-(1,3-dimethyl-1,4,6,7-tetrahydro-5H-pyrazolo[4,3-c]pyridin-5-yl)-5-(2-fluorophenyl)-7-methylimidazo[5,1-f][1,2,4]triazine]
0.638 nM	Cc1c2c(nn1C)CCN(c1ncnn3c(C)nc(-c4ccccc4F)c13)C2 [Example 113]
0.519 nM	CCc1nn(C)c2c1CN(c1ncnn3c(C)nc(-c4ccc(F)cc4Cl)c13)CC2 [Example 119, 5-(2-chloro-4-fluorophenyl)-4-(3-ethyl-1-methyl-1,4,6,7-tetrahydro-5H-pyrazolo[4,3-c]pyridin-5-yl)-7-methylimidazo[5,1-f][1,2,4]triazine]
0.497 nM	CCn1c(C2CC2)nc2c(c1=O)CN(c1ncnn3c(C)nc(-c4ccccc4F)c13)CC2 [Example 149, 2-cyclopropyl-3-ethyl-6-[5-(2-fluorophenyl)-7-methylimidazo[5,1-f][1,2,4]triazin-4-yl]-5,6,7,8-tetrahydropyrido[4,3-d]pyrimidin-4(3H)-one]
0.336 nM	CCc1nn(C)c2c1CN(c1ncnn3c(C)nc(-c4ccccc4F)c13)CC2 [Example 117]
0.265 nM	CCc1nc(C2CC2)nc2c1CN(c1ncnn3c(C)nc(-c4ccccc4F)c13)CC2 [Example 136, 2-cyclopropyl-4-ethyl-6-[5-(2-fluorophenyl)-7-methylimidazo[5,1-f][1,2,4]triazin-4-yl]-5,6,7,8-tetrahydropyrido[4,3-d]pyrimidine]
0.233 nM	CCc1c2c(nn1C)CCN(c1ncnn3c(C)nc(-c4ccc(F)cc4Cl)c13)C2 [Example 120, 5-(2-chloro-4-fluorophenyl)-4-(3-ethyl-2-methyl-2,4,6,7-tetrahydro-5H-pyrazolo[4,3-c]pyridin-5-yl)-7-methylimidazo[5,1-f][1,2,4]triazine]
0.147 nM	CCc1c2c(nn1C)CCN(c1ncnn3c(C)nc(-c4ccccc4F)c13)C2 [Example 112, 4(3-ethyl-2-methyl-2,4,6,7-tetrahydro-5H-pyrazolo[4,3-c]pyridin-5-yl)-5-(2-fluorophenyl)-7-methylimidazo[5,1-f][1,2,4]triazine]
0.142 nM	Cc1nc([C@@H]2CCOC2)c2c(N3CCc4nc(C5CC5)nc(OC(F)F)c4C3)ncnn12 [Example 141, 2-cyclopropyl-4-(difluoromethoxy)-6-{7-methyl-5-[(3S)-tetrahydrofuran-3-yl]imidazo[5,1-f][1,2,4]triazin-4-yl}-5,6,7,8-tetrahydropyrido[4,3-d]pyrimidine]
0.0998 nM	CCn1c(C)nc2c(c1=O)CN(c1ncnn3c(C)nc([C@@H]4CCOC4)c13)CC2 [Example 129, 3-ethyl-2-methyl-6-{7-methyl-5-[(3S)-tetrahydrofuran-3-yl]imidazo[5,1-f][1,2,4]triazin-4-yl}-5,6,7,8-tetrahydropyrido[4,3-d]pyrimidin-4(3H)-one]
0.0837 nM	[2H]C([2H])([2H])n1c(C2CC2)nc2c(c1=O)CN(c1ncnn3c(C)nc([C@@H]4CCOC4)c13)CC2 [Example 144]
0.0697 nM	CCn1c(C2CC2)nc2c(c1=O)CN(c1ncnn3c(C)nc([C@@H]4CCOC4)c13)CC2 [Example 150, 2-cyclopropyl-3-ethyl-6-{7-methyl-5-[(3S)-tetrahydrofuran-3-yl]imidazo[5,1-f][1,2,4]triazin-4-yl}-5,6,7,8-tetrahydropyrido[4,3-d]pyrimidin-4(3H)-one]
